Assays:
Type in all cases: biochemical
[1] = molecular target: T1, ROCK I (AA 6-553) (Homo sapiens, UniProt Q13464); assay: ROCK inhibition assay, standard coupled enzyme system ("Enzyme"); details: enzyme-linked assay
T1 construct: ROCK I (AA 6-553)
Procedure, shortened: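 ROCK I (AA 6-553) at 45 nM and 30 °C with 45 μM ATP and 200 μM peptide, in 100 mM HEPES pH 7.5, 10 mM MgCl2, 25 mM NaCl, 2 mM DTT, 1.5% DMSO. ADP output read by a PK/LDH coupled system: 2.5 mM PEP, 350 μM NADH, 30 μg/ml PK, 10 μg/ml LDH.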

[2] = molecular target: JAK2 (Homo sapiens, UniProt O60674); assay: JAK2 inhibition assay (radioactive enzyme assay, as for JAK3); details: average Ki if more than one value determined
Procedure, shortened: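 Both kinases: poly(Glu)4Tyr substrate in 100 mM HEPES pH 7.4, 10 mM MgCl2, 1 mM DTT. Run 20 min at 25° C, TCA stop, filter-bound ³³P counted, Ki(app) fitted after background subtraction. JAK3: final [γ-³³P]ATP 5 μM, enzyme added as 2 nM solution. JAK2: final poly(Glu)4Tyr 15 μM, final ATP 12 μM.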

[3] = molecular target: T2, full length Aurora-A (AA 1-403) (Homo sapiens, UniProt O14965); assay: Aurora-A inhibition assay, standard coupled enzyme system; details: average Ki if more than one value determined
T2 construct: full length Aurora-A (AA 1-403)
T2 sequence (O14965 1-403): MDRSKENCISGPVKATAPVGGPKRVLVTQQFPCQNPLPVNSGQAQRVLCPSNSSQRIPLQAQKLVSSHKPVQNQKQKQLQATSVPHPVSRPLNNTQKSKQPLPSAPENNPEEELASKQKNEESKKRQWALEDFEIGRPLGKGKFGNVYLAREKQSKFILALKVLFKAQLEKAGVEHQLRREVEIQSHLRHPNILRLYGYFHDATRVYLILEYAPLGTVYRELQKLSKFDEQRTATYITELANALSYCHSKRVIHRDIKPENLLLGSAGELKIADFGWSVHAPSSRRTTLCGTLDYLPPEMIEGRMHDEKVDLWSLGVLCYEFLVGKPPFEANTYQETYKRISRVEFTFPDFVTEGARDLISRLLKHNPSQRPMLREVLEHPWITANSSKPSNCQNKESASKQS

[4] = molecular target: T3, JAK3 (Homo sapiens, UniProt P52333); assay: JAK3 inhibition assay (standard radioactive enzyme assay); details: average Ki if more than one value determined
T3 sequence (P52333 1-1124): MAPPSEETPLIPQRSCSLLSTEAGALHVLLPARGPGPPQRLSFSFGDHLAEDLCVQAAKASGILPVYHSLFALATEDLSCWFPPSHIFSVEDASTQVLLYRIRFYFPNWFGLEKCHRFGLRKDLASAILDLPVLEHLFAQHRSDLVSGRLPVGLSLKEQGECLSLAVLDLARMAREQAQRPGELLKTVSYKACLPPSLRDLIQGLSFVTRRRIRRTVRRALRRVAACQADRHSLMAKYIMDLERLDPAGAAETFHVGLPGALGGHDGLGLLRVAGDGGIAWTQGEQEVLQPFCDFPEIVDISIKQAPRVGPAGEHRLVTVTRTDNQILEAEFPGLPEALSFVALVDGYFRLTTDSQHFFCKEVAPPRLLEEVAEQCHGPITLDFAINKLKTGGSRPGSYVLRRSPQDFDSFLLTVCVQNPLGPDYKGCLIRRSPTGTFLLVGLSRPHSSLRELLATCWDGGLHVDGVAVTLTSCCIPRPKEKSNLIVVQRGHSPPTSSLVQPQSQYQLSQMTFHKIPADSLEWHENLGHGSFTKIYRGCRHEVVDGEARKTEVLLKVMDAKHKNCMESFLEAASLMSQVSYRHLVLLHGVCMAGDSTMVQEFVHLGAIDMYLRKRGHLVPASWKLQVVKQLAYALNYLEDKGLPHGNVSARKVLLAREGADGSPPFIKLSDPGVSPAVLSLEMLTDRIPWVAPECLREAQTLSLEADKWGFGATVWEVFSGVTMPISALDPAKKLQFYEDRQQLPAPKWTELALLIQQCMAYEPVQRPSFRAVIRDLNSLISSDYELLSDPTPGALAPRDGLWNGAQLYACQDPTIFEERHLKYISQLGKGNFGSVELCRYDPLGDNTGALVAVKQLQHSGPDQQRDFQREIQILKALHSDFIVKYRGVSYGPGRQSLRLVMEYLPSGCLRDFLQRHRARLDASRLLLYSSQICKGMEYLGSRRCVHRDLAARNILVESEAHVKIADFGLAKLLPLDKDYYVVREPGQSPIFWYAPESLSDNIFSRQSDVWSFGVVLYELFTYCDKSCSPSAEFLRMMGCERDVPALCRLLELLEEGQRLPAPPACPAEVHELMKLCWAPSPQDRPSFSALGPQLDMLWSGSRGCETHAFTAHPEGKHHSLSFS

Sequence of JAK2 (O60674 whole entry, species assumed): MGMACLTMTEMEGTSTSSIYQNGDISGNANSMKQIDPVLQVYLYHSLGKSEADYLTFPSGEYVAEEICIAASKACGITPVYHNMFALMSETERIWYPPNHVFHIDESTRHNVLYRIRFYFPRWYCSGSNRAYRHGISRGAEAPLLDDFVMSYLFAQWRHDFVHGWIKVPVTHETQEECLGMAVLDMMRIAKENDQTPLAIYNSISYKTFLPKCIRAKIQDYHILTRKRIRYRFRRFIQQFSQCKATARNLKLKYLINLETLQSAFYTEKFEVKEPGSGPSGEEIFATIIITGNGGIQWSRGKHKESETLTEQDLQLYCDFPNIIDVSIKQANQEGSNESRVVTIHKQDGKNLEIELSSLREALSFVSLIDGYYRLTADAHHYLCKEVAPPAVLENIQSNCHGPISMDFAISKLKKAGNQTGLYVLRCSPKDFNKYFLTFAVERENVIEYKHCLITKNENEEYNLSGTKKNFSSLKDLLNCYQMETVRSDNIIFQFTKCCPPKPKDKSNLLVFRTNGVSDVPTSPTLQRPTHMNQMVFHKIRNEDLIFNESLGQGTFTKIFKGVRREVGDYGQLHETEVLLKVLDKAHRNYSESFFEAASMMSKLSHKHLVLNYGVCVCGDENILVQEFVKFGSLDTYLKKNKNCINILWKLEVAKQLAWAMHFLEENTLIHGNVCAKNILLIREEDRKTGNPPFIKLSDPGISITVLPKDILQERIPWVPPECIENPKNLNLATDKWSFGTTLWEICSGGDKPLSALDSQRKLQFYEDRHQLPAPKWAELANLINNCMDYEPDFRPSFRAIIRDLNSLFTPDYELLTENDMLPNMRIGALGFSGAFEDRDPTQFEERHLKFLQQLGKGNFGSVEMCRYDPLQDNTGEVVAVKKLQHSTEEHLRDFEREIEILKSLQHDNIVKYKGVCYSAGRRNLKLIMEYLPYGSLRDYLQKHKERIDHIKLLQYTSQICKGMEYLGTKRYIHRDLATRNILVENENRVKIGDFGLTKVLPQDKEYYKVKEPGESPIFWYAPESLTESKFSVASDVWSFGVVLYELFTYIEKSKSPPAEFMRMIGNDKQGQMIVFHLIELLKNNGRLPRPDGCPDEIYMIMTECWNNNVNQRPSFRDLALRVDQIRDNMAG
T1 sequence (Q13464 6-553, species assumed): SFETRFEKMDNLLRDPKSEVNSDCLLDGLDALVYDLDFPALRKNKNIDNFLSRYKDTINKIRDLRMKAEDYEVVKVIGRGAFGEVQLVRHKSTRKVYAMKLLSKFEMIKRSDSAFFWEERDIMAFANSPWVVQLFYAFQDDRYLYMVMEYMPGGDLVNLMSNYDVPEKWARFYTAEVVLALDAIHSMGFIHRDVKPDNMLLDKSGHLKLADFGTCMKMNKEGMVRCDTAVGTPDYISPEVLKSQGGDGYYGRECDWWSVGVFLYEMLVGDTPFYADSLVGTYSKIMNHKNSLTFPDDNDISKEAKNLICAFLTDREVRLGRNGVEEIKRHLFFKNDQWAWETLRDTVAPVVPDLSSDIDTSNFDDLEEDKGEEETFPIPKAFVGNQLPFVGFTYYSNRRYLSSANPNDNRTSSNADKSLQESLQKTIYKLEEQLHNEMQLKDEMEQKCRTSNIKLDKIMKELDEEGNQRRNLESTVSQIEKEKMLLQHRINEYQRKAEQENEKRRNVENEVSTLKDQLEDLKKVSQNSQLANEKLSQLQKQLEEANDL

| Compound | Ki [1] [nM] | Ki [2] [nM] | Ki [3] [nM] | Ki [4] [nM] |
| --- | --- | --- | --- | --- |
| COC(=O)c1ccc(-c2c[nH]c3ncc(Cl)cc23)nc1NCc1ccccc1 [Compound 43] | 500 to 5000 | 500 to 5000 | < 500 | 500 to 5000 |
| O=C(O)c1ccc(NCc2ccccc2)nc1-c1c[nH]c2ncc(Cl)cc12 [Compound 44] | 500 to 5000 | 500 to 5000 | < 500 | 500 to 5000 |
| COC(=O)c1ccc(NCc2ccccc2)nc1-c1c[nH]c2ncc(Cl)cc12 [Compound 45] | 500 to 5000 | < 500 | < 500 | < 500 |
| NC(=O)c1ccc(-c2c[nH]c3ncc(Cl)cc23)nc1NCc1ccccc1 [Compound 46] | 500 to 5000 | < 500 | < 500 | < 500 |
| CC(=O)N1[C@H](C)CN(c2cccc(-c3c[nH]c4ncc(C(=O)O)cc34)n2)C[C@@H]1C [Compound 47] | 500 to 5000 | < 500 | 500 to 5000 | < 500 |
| Fc1cnc2[nH]cc(-c3cccc(NCc4ccccc4)n3)c2c1 [Compound 48] | 500 to 5000 | < 500 | < 500 | < 500 |
| CC(=O)N1CCCN(c2cccc(-c3c[nH]c4ncc(F)cc34)n2)CC1 [Compound 49] | 500 to 5000 | < 500 | 500 to 5000 | < 500 |
| CC(=O)N1[C@H](C)CN(c2cccc(-c3c[nH]c4ncc(F)cc34)n2)C[C@@H]1C [Compound 50] | < 500 | < 500 | 500 to 5000 | < 500 |
| CC(=O)N1[C@H](C)CN(c2cccc(-c3c[nH]c4ncc(C(=O)N5C[C@@H](C)N[C@@H](C)C5)cc34)n2)C[C@@H]1C [Compound 52] | 500 to 5000 | > 5000 | 500 to 5000 | > 5000 |
| CC(=O)N1[C@H](C)CN(c2cccc(-c3c[nH]c4ncc(C(=O)OC(C)C)cc34)n2)C[C@@H]1C [Compound 53] | < 500 | < 500 | < 500 | < 500 |
| CC(=O)N1[C@H](C)CN(c2cccc(-c3c[nH]c4ncc(C(=O)N5CCCCC5)cc34)n2)C[C@@H]1C [Compound 54] | 500 to 5000 | 500 to 5000 | < 500 | 500 to 5000 |
| CC(=O)N1[C@H](C)CN(c2cccc(-c3c[nH]c4ncc(C(=O)N5CCN(C)CC5)cc34)n2)C[C@@H]1C [Compound 57] | 500 to 5000 | > 5000 | 500 to 5000 | 500 to 5000 |
| CC(=O)N1[C@H](C)CN(c2cccc(-c3c[nH]c4ncc(C(=O)NC5CCCCC5)cc34)n2)C[C@@H]1C [Compound 58] | 500 to 5000 | < 500 | 500 to 5000 | < 500 |
| CNC(=O)c1cnc2[nH]cc(-c3cccc(N4C[C@@H](C)N(C(C)=O)[C@@H](C)C4)n3)c2c1 [Compound 59] | 500 to 5000 | < 500 | 500 to 5000 | < 500 |
| CC(=O)N1[C@H](C)CN(c2cccc(-c3c[nH]c4ncc(C(=O)N(C)C)cc34)n2)C[C@@H]1C [Compound 60] | 500 to 5000 | 500 to 5000 | 500 to 5000 | 500 to 5000 |
| COC(=O)Nc1cnc2[nH]cc(-c3cccc(N4C[C@@H](C)N(C(C)=O)[C@@H](C)C4)n3)c2c1 [Compound 66] | 500 to 5000 | < 500 | 500 to 5000 | < 500 |
| CC(=O)N1[C@H](C)CN(c2cc(C(=O)O)cc(-c3c[nH]c4ncc(Cl)cc34)n2)C[C@@H]1C [Compound 67] | 500 to 5000 | < 500 | < 500 | < 500 |

| Compound | Ki [1] [nM] | Ki [2] [nM] | Ki [3] [nM] | Ki [4] [nM] |
| --- | --- | --- | --- | --- |
| CC(=O)N1[C@H](C)CN(c2nc(-c3c[nH]c4ncc(Cl)cc34)c(F)cc2C#N)C[C@@H]1C [Compound 68] | 500 to 5000 | < 500 | < 500 | < 500 |
| CC(=O)N1[C@H](C)CN(c2cccc(-c3c[nH]c4ncc(NC(=O)Oc5ccccc5)cc34)n2)C[C@@H]1C [Compound 69] | 500 to 5000 | < 500 | 500 to 5000 | < 500 |
| CCOC(=O)Nc1cnc2[nH]cc(-c3cccc(N4C[C@@H](C)N(C(C)=O)[C@@H](C)C4)n3)c2c1 [Compound 70] | 500 to 5000 | < 500 | 500 to 5000 | < 500 |
| CC(=O)N1[C@H](C)CN(c2nc(-c3c[nH]c4ncc(Cl)cc34)c(F)cc2C(N)=O)C[C@@H]1C [Compound 72] | 500 to 5000 | 500 to 5000 | < 500 | < 500 |
| CC(=O)N1[C@H](C)CN(c2nc(-c3c[nH]c4ncc(Cl)cc34)ccc2[N+](=O)[O-])C[C@@H]1C [Compound 75] | < 500 | < 500 | < 500 | < 500 |
| CC(=O)N1[C@H](C)CN(c2nc(-c3c[nH]c4ncc(Cl)cc34)ccc2N)C[C@@H]1C [Compound 76] | 500 to 5000 | < 500 | < 500 | < 500 |
| CC(=O)N1[C@H](C)CN(c2ccc([N+](=O)[O-])c(-c3c[nH]c4ncc(Cl)cc34)n2)C[C@@H]1C [Compound 78] | 500 to 5000 | < 500 | < 500 | < 500 |
| CC(=O)N1[C@H](C)CN(c2nc(-c3c[nH]c4ncc(Cl)cc34)cc(C)c2C#N)C[C@@H]1C [Compound 79] | 500 to 5000 | < 500 | < 500 | < 500 |
| CC(=O)N1[C@H](C)CN(c2cc(C)c(C#N)c(-c3c[nH]c4ncc(Cl)cc34)n2)C[C@@H]1C [Compound 80] | 500 to 5000 | < 500 | < 500 | < 500 |
| CC(=O)N1[C@H](C)CN(c2ccc(N)c(-c3c[nH]c4ncc(Cl)cc34)n2)C[C@@H]1C [Compound 81] | 500 to 5000 | 500 to 5000 | < 500 | 500 to 5000 |
| CC(=O)N1[C@H](C)CN(c2nc(-c3c[nH]c4ncc(Cl)cc34)ccc2C#N)C[C@@H]1C [Compound 92] | < 500 | < 500 | < 500 | < 500 |
| CC(=O)N1[C@H](C)CN(c2ccc(C#N)c(-c3c[nH]c4ncc(Cl)cc34)n2)C[C@@H]1C [Compound 93] | 500 to 5000 | < 500 | < 500 | < 500 |
| CC(=O)N1[C@H](C)CN(c2cccc(-c3c[nH]c4ncc(OCCN5CCOCC5)cc34)n2)C[C@@H]1C [Compound 95] | 500 to 5000 | 500 to 5000 | 500 to 5000 | 500 to 5000 |
| CC(=O)N1[C@H](C)CN(c2cccc(-c3c[nH]c4ncc(OC5CCOC5)cc34)n2)C[C@@H]1C (stereo partly drawn) [Compound 96] | 500 to 5000 | < 500 | 500 to 5000 | < 500 |
| CC(=O)N1[C@H](C)CN(c2cc(C(N)=O)cc(-c3c[nH]c4ncc(Cl)cc34)n2)C[C@@H]1C [Compound 97] | 500 to 5000 | < 500 | < 500 | < 500 |
| CC(=O)N1[C@H](C)CN(c2cc(C#N)cc(-c3c[nH]c4ncc(Cl)cc34)n2)C[C@@H]1C [Compound 98] | 500 to 5000 | < 500 | < 500 | < 500 |
